Test results from patent publication US4029650A, “Novel derivatives of N-(3,4,5-trimethoxy cinnamoyl)piperazine and the process for preparing them” (priority 1974, dated 1977).
Counter-ions that a name gives are not always drawn. Like-named read-outs stand apart in the source and are kept apart here.

Key:
[1] = Peripheral vasodilatory action: increase of femoral artery flow, anaesthetised dog, intra-arterial; assay type: in vivo; details: 500 μg/kg (0.5 mg/kg) i.a.
[2] = Coronary vasodilatory action: increase of flow in the anterior interventricular artery, anaesthetised dog, intravenous; assay type: in vivo
[3] = Increase of flow and oxygenation of the coronary veinous sinus, intravenous perfusion; assay type: in vivo, dog
Protocol: Furthermore, administered by intravenous perfusion, the derivatives of formula I are capable of increasing the flow and oxygenation of the coronary veinous sinus, the flow of the coronary veinous sinus being measured volumetrically by means of a modified MORAWITZ probe, whilst the oxygen content of the coronary veinous blood is calculated from the rate of hemoglobin saturation measured by hemoreflectometry.

[4] = Cerebral vasodilatory properties: sub-cortical irrigation, anaesthetised cat; assay type: in vivo; details: 8 mg/kg i.v.
Source text: Administered to an anaesthetised cat by single intravenous injection, the derivatives of formula I are capable of increasing the sub-cortical irrigation measured according to a technique derived from the thermoconductimetric method of SEYLAZ.

[5] = Acute toxicity (mouse); details: in vivo; for mortality: read-out: Percentage mortality; for LD50: read-out: Acute toxicity (DL 50) (converted)
[6] = Antihypertensive properties in genetically hypertensive (vigil SHR) rat; assay type: in vivo; details: for Hypertensive action (vigil SHR rat), effect: 100 mg/kg p.o.
[7] = anaesthetised dog, 2 mg/kg i.v.
[8] = 12.7 mg/kg intravenous perfusion
[9] = 12.5 mg/kg i.v. perfused in 10 min. (1 ml/min)
[10] = anaesthetised dog, 4 mg/kg i.v.
[11] = 17.5 mg/kg intravenous perfusion
[12] = 100 mg/kg po, genetically hypertensive rat

COc1cc(C=CC(=O)N2CCN(CC(=O)N3CCCCCCC3)CC2)cc(OC)c1OC [74 0678, N-(3,4,5-trimethoxycinnamoyl)-N'-(heptamethyleniminocarbonylmethyl) piperazine oxalate]
duration of increase of femoral artery flow [1]: 4.5 min
increase of femoral artery flow [1]: 226%
duration of increase of flow in the anterior interventricular artery [2, 7]: 8.3 min
increase of flow in the anterior interventricular artery [2, 7]: 148%
Increase of flow of the coronary veinous sinus [3, 8]: 65%
Increase of oxygenation of the coronary veinous sinus [3, 8]: 162%
duration of effect on flow of the coronary veinous sinus [3, 8]: 30 min
duration of effect on oxygenation of the coronary veinous sinus [3, 8]: 60 min
duration of increase in the sub-cortical flow [4]: 5 min
increase in the sub-cortical flow [4]: 45%
mortality ([5]; iv, intravenously (mouse), 255 mg/kg): ~50%
LD50 ([5]; iv, mouse, i.v.): 255 mg/kg

COc1cc(C=CC(=O)N2CCN(CC(=O)N3CCCC3)CC2)cc(OC)c1OC [67 350, reference compound]
duration of increase of femoral artery flow [1]: 12 min
increase of femoral artery flow [1]: 82%
duration of increase of flow in the anterior interventricular artery [2, 9]: 60 min
increase of flow in the anterior interventricular artery [2, 9]: 59%
Hypertensive action (vigil SHR rat), effect ([6]; 4 h): -40%
Hypertensive action (vigil SHR rat), effect ([6]; 24 h): -20%
LD50 ([5]; iv, mouse, i.v.): 617 mg/kg
LD50 ([5]; po, mouse, p.o.): 1000 mg/kg
mortality ([5]; mouse, iv, 617 mg/kg, intravenously (mouse), 617 mg/kg): 50%
mortality ([5]; mouse, po, 1000 mg/kg, orally (mouse), 1 000 mg/kg): 50%

COc1cc(C=CC(=O)N2CCN(CC(=O)N3CCCCC3)CC2)cc(OC)c1OC.O=C(O)/C=C\C(=O)O [74 0479, N-(3,4,5-trimethoxycinnamoyl)-N'-(piperidinocarbonylmethyl) piperazine maleate]
duration of increase of femoral artery flow [1]: 3 min
increase of femoral artery flow [1]: 120%
duration of increase of flow in the anterior interventricular artery [2, 10]: 40 min
increase of flow in the anterior interventricular artery [2, 10]: 190%
Increase of flow of the coronary veinous sinus [3, 11]: 50%
Increase of oxygenation of the coronary veinous sinus [3, 11]: 132%
duration of effect on flow of the coronary veinous sinus [3, 11]: 15 min
duration of effect on oxygenation of the coronary veinous sinus [3, 11]: 30 min
duration of increase in the sub-cortical flow [4]: 47 min
increase in the sub-cortical flow [4]: 58%
animals with systolic arterial pressure lowered by 30 mmHg [6, 12]: 60%
duration of lowering of the systolic arterial pressure [6, 12]: exceeding 24 hours
lowering of the systolic arterial pressure ([6]; 100 mg/kg po, genetically hypertensive rat, in 60% of the animals): 30 mmHg
LD50 ([5]; iv, mouse, i.v.): 700 mg/kg
LD50 ([5]; po, mouse, p.o.): 2250 mg/kg
mortality ([5]; mouse, iv, 700 mg/kg, intravenously (mouse), 700 mg/kg): ~50%
mortality ([5]; mouse, po, 250 mg/kg, orally (mouse), 2 250 mg/kg): 50%

COc1ccc(CCN(C)C(=O)CN2CCN(C(=O)C=Cc3cc(OC)c(OC)c(OC)c3)CC2)cc1OC [75 0002, N-(3,4,5-trimethoxycinnamoyl)-N'-[N"-methyl N"-(3,4-dimethoxyphenylethyl)aminocarbonylmethyl] piperazine]
duration of increase of femoral artery flow [1]: 8 min
increase of femoral artery flow [1]: 105%
duration of increase of flow in the anterior interventricular artery [2, 10]: 19 min
increase of flow in the anterior interventricular artery [2, 10]: 100%
Increase of flow of the coronary veinous sinus ([3]; 20 mg/kg intravenous perfusion): 124%
Increase of oxygenation of the coronary veinous sinus ([3]; 20 mg/kg intravenous perfusion): 214%
duration of effect on flow of the coronary veinous sinus ([3]; 20 mg/kg intravenous perfusion): 15 min
duration of effect on oxygenation of the coronary veinous sinus ([3]; 20 mg/kg intravenous perfusion): 60 min
mortality ([5]; iv, intravenously (mouse), 200 mg/kg): ~50%
LD50 ([5]; iv, mouse, i.v.): 200 mg/kg
LD50 ([5]; po, mouse, p.o.): 2000 mg/kg
mortality ([5]; mouse, po, 2000 mg/kg, orally (mouse), 2 000 mg/kg): 30%

COc1cc(C=CC(=O)N2CCN(CC(=O)N3CCc4ccccc4C3)CC2)cc(OC)c1OC [75 0001, N-(3,4,5-trimethoxycinnamoyl)-N'-(1,2,3,4-tetrahydroisoquinolinocarbonylmethyl)piperazine]
duration of increase of femoral artery flow [1]: 7 min
increase of femoral artery flow [1]: 106%
duration of increase of flow in the anterior interventricular artery [2, 10]: 19 min
increase of flow in the anterior interventricular artery [2, 10]: 45%
Increase of flow of the coronary veinous sinus ([3]; 29 mg/kg intravenous perfusion): 88%
Increase of oxygenation of the coronary veinous sinus ([3]; 29 mg/kg intravenous perfusion): 142%
duration of effect on flow of the coronary veinous sinus ([3]; 29 mg/kg intravenous perfusion): 15 min
duration of effect on oxygenation of the coronary veinous sinus ([3]; 29 mg/kg intravenous perfusion): 60 min
duration of increase in the sub-cortical flow [4]: 22 min
increase in the sub-cortical flow [4]: 105%
mortality ([5]; iv, intravenously (mouse), 580 mg/kg): ~50%
LD50 ([5]; iv, mouse, i.v.): 580 mg/kg
